Experimental data published in US20230114728A1 (Venatorx Pharmaceuticals, Inc., priority 2019, published 2023).
≈ marks a conversion by molar mass, not a printed value.

How the values were obtained:
Assay type in all cases: cell-based
N. gonorrhoeae WHO Z = test: Liquid broth MIC in Fastidious broth; settings: Neisseria gonorrhoeae, read-out: Minimum Inhibitory Concentration, N. gonorrhoeae WHO Z
Method in brief: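 Strains bearing mosaic PBP2 grown 24 h on chocolate agar (36° C, 5% CO2), suspended in saline and added to 2-fold compound dilutions in Fastidious broth at 5×10^5 CFU/mL. After ~24 hours at 36° C with 5% CO2, MIC taken visually as lowest well with <10% growth relative to full growth.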

E. coli 901C = test: Broth microdilution MIC in CAMHB; settings: Escherichia coli; E. coli 901C (hyper-permeable); MHB; read-out: Minimum Inhibitory Concentration, E. coli 901C
Method in brief: (§1)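 CLSI microdilution; CAMHB; inoculum 2-8×10^5 CFU/mL from 3-5 h 37° C culture; 2-fold compound series; 16-20 h, 37° C; MIC = lowest well without visible growth.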

[1] = system: P. aeruginosa (ΔmexAB-oprM); test: Broth microdilution MIC in CAMHB; settings: Pseudomonas aeruginosa, read-out: Minimum Inhibitory Concentration, P. aeruginosa ΔmexAB-OprM
Method in brief: as §1

P. aeruginosa ATCC 35151 = test: Broth microdilution MIC in CAMHB; settings: Pseudomonas aeruginosa, ATCC35151; MHB; hyper-permeable strain; read-out: Minimum Inhibitory Concentration, P. aeruginosa ATCC 35151
Method in brief: as §1

P. aeruginosa ATCC 27853 = test: Broth microdilution MIC in CAMHB; settings: Pseudomonas aeruginosa, ATCC27853; MHB; read-out: Minimum Inhibitory Concentration, P. aeruginosa ATCC 27853
Method in brief: as §1

E. coli D22 = test: Broth microdilution MIC in CAMHB; settings: Escherichia coli; E. coli D22 (hyper-permeable); MHB; read-out: Minimum Inhibitory Concentration, E. coli D22
Method in brief: as §1

E. coli AG100 = test: Broth microdilution MIC in CAMHB; settings: Escherichia coli; E. coli AG100 (wild-type parent); MHB; read-out: Minimum Inhibitory Concentration, E. coli AG100
Method in brief: as §1

A. baumannii ATCC 19606 = test: Broth microdilution MIC in CAMHB; settings: Acinetobacter baumannii, ATCC19606; MHB; read-out: Minimum Inhibitory Concentration, A. baumannii ATCC 19606
Method in brief: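 Lowest compound concentration with no visible growth after 16-20 h at 37 °C defines MIC. Plates of 2-fold serial dilutions in cation-adjusted Mueller Hinton broth received 2-8×10^5 CFU/mL of exponentially grown cells, per CLSI methods; panel spans reference, hyper-permeable and efflux-pump-deleted strains.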

[2] = system: K. pneumoniae 848844 producing SHV-11 and KPC-2; test: Broth microdilution MIC in CAMHB; settings: Klebsiella pneumoniae, read-out: Minimum Inhibitory Concentration, K. pneumoniae 848844
Method in brief: as §1

[3] = system: K. pneumoniae SI-117 producing VIM-1; test: Broth microdilution MIC in CAMHB; settings: Klebsiella pneumoniae, read-out: Minimum Inhibitory Concentration, K. pneumoniae SI-117
Method in brief: as §1

[4] = system: K. pneumoniae UMM producing SHV-5 and KPC-2; test: Broth microdilution MIC in CAMHB; settings: Klebsiella pneumoniae, read-out: Minimum Inhibitory Concentration, K. pneumoniae UMM
Method in brief: as §1

E. coli AG100A = test: Broth microdilution MIC in CAMHB; settings: Escherichia coli, read-out: Minimum Inhibitory Concentration, E. coli AG100A
Method in brief: as §1

E. coli ATCC 25922 = test: Broth microdilution MIC in CAMHB; settings: Escherichia coli, ATCC25922; E. coli ATCC 25922; MHB; read-out: Minimum Inhibitory Concentration, E. coli 25922
Method in brief: as §1

Structure (SMILES) | MIC (N. gonorrhoeae WHO Z) | MIC (E. coli 901C) | MIC [1] | MIC (P. aeruginosa ATCC 35151) | MIC (P. aeruginosa ATCC 27853) | MIC (E. coli D22) | MIC (E. coli AG100) | MIC (A. baumannii ATCC 19606) | MIC [2] | MIC [3] | MIC [4] | MIC (E. coli AG100A) | MIC (E. coli ATCC 25922)
CCN1CCN(C(=O)NC(C(=O)N[C@H]2Cc3cccc(C(=O)O)c3OB2O)c2c(F)cc(O)cc2Cl)C(=O)C1=O (stereo partly drawn) [Example 95, (3R)-3-(2-(2-chloro-6-fluoro-4-hydroxyphenyl)-2-(4-ethyl-2,3-dioxopiperazine-1-carboxamido)acetamido)-2-hydroxy-3,4-dihydro-2H-benzo[e][1,2]oxaborinine-8-carboxylic acid] | 16 to 32 µg/mL (≈ 27.7 to 55.5 µM) | < 0.25 µg/mL | 32 to 64 µg/mL (≈ 55.5 to 111 µM) | 2 to 4 µg/mL (≈ 3.47 to 6.94 µM) | > 128 µg/mL | 0.5 to 1 µg/mL (≈ 0.867 to 1.73 µM) | 8 to 16 µg/mL (≈ 13.9 to 27.7 µM) | > 128 µg/mL | 32 to 64 µg/mL (≈ 55.5 to 111 µM) | 32 to 64 µg/mL (≈ 55.5 to 111 µM) | 8 to 16 µg/mL (≈ 13.9 to 27.7 µM) | 0.5 to 1 µg/mL (≈ 0.867 to 1.73 µM) | 8 to 16 µg/mL (≈ 13.9 to 27.7 µM)
CCN1CCN(C(=O)NC(C(=O)N[C@H]2Cc3cccc(C(=O)O)c3OB2O)c2ccc(C(=O)O)c(F)c2)C(=O)C1=O (stereo partly drawn) [Example 31, (3R)-3-(2-(4-carboxy-3-fluorophenyl)-2-(4-ethyl-2,3-dioxopiperazine-1-carboxamido)acetamido)-2-hydroxy-3,4-dihydro-2H-benzo[e][1,2]oxaborinine-8-carboxylic acid] | 1 to 2 µg/mL (≈ 1.75 to 3.51 µM) | < 0.25 µg/mL | 8 to 16 µg/mL (≈ 14 to 28.1 µM) | < 0.25 µg/mL | 32 to 64 µg/mL (≈ 56.1 to 112 µM) | 2 to 4 µg/mL (≈ 3.51 to 7.01 µM) | 32 to 64 µg/mL (≈ 56.1 to 112 µM) | > 128 µg/mL | > 128 µg/mL | > 128 µg/mL | 32 to 64 µg/mL (≈ 56.1 to 112 µM) | 2 to 4 µg/mL (≈ 3.51 to 7.01 µM) | 32 to 64 µg/mL (≈ 56.1 to 112 µM)
CCN1CCN(C(=O)NC(C(=O)N[C@H]2Cc3cccc(C(=O)O)c3OB2O)c2cccc(NS(N)(=O)=O)c2)C(=O)C1=O (stereo partly drawn) [Example 98, (3R)-3-(2-(4-ethyl-2,3-dioxopiperazine-1-carboxamido)-2-(3-(sulfamoylamino)phenyl)acetamido)-2-hydroxy-3,4-dihydro-2H-benzo[e][1,2]oxaborinine-8-carboxylic acid] | 16 to 32 µg/mL (≈ 26.6 to 53.1 µM) | < 0.25 µg/mL | 8 to 16 µg/mL (≈ 13.3 to 26.6 µM) | 0.5 to 1 µg/mL (≈ 0.83 to 1.66 µM) | > 128 µg/mL | 0.5 to 1 µg/mL (≈ 0.83 to 1.66 µM) | 8 to 16 µg/mL (≈ 13.3 to 26.6 µM) | > 128 µg/mL | > 128 µg/mL | 32 to 64 µg/mL (≈ 53.1 to 106 µM) | 32 to 64 µg/mL (≈ 53.1 to 106 µM) | 0.5 to 1 µg/mL (≈ 0.83 to 1.66 µM) | 8 to 16 µg/mL (≈ 13.3 to 26.6 µM)
CCN1CCN(C(=O)NC(C(=O)N[C@H]2Cc3cccc(C(=O)O)c3OB2O)c2ccc(O)cc2OC)C(=O)C1=O (stereo partly drawn) [Example 70, (3R)-3-(2-(4-ethyl-2,3-dioxopiperazine-1-carboxamido)-2-(4-hydroxy-2-methoxyphenyl)acetamido)-2-hydroxy-3,4-dihydro-2H-benzo[e][1,2]oxaborinine-8-carboxylic acid] | > 64 µg/mL | 0.5 to 1 µg/mL (≈ 0.902 to 1.8 µM) | 8 to 16 µg/mL (≈ 14.4 to 28.9 µM) | 8 to 16 µg/mL (≈ 14.4 to 28.9 µM) | > 128 µg/mL | 8 to 16 µg/mL (≈ 14.4 to 28.9 µM) | > 128 µg/mL | > 128 µg/mL | > 128 µg/mL | > 128 µg/mL | > 128 µg/mL | 2 to 4 µg/mL (≈ 3.61 to 7.22 µM) | > 128 µg/mL
NCCCN1CCN(C(=O)NC(C(=O)N[C@H]2Cc3cccc(C(=O)O)c3OB2O)c2ccc(C(N)=O)c(O)c2)C(=O)C1=O (stereo partly drawn) [Example 47, (3R)-3-(2-(4-(3-aminopropyl)-2,3-dioxopiperazine-1-carboxamido)-2-(4-carbamoyl-3-hydroxyphenyl)acetamido)-2-hydroxy-3,4-dihydro-2H-benzo[e][1,2]oxaborinine-8-carboxylic acid] | > 64 µg/mL | 8 to 16 µg/mL (≈ 13.4 to 26.8 µM) | 2 to 4 µg/mL (≈ 3.35 to 6.71 µM) | < 0.25 µg/mL | 32 to 64 µg/mL (≈ 53.7 to 107 µM) | 2 to 4 µg/mL (≈ 3.35 to 6.71 µM) | > 128 µg/mL | > 128 µg/mL | > 128 µg/mL | > 128 µg/mL | > 128 µg/mL | 2 to 4 µg/mL (≈ 3.35 to 6.71 µM) | > 128 µg/mL
